Reference: patent US20060234914A1, “Fragments of proinsulin c-peptide” (Creative Peptides Sweden AB, priority 2002, published 2006)
Like-named read-outs stand apart in the source and are kept apart here.

How the values were obtained:
[1] = tested on: human renal tubular cells; test: Intracellular Ca2+ concentration ([Ca2+]i) measurements as an assay of C-peptide activity; format: cell-based; settings: for [Ca2+]i response after preincubation of the cells with pertussis toxin: pertussis toxin 1 μg/ml for 4 h at 37° C.
Description: Based on studies showing a C-peptide effect on the intracellular Ca^2+ concentration ([Ca^2+]) (Ohtomo et al., supra, Kunt et al., supra), an assay has been developed, for C-peptide activity, based on measuring [Ca^2+]i changes in human renal tubular cells, namely a rise in [Ca^2+]i.
The following peptides were used, all prepared by solid-phase peptide synthesis and purchased from Sigma (Genosys (Cambridge, UK): human C-peptide, scrambled C-peptide (with the same residues, but randomly ordered des (27-31) C-peptide and C-terminal pentapeptide (EGSLQ).
Human renal tubular cells were obtained from the outer cortex of renal tissues obtained from non-diabetic patients undergoing elective nephrectomy for renal cell carcinomas. The collection of the tissue samples during suegery was approved by the Ethics Committee of the Karolinska Hospital. The cells were cultured in RPMI 1640 (Life Technologies, Grand Island, N.Y.) supplemented with 10% fetal calf serum, 2 mM L-glutamine, 10 mM HEPES, benzylpenicillin (100 U/ml), and streptbmycin (100 U/ml). Cells were grown to confluency on cover slips in a six-well plate and starved in serum-free medium for 4 hours before experiments.
Changes in [Ca^2+1]1 were measured on cells attached to cover slips. The cells were loaded with 2 μM of the fluorescent Ca^2+ indicator fura-2/AM at 37° C. for 30 minutes in a buffer containing 115 mM NaCl, 24 mM NaHCO3, 4.7 mM KCl, 1.26 mM CaCl2 1.2 mM KH2PO4, 1.2 mM MgSOZ 11.1 mM glucose, 20 mM HEPES, and 5 mg/ml bovine serum albumin, pH 7.4. Cover slips were mounted as the bottom of an open chamber placed on a thermostatically controlled stage of an inverted epifluorescence microscope (Zeiss, Axiovert 135). The microscope was connected to a SPEX fluorolog-2 system for dual-wave-length excitation fluorimetry. The emissions of the two excitation wavelengths of 340 and 380 nm were used to calculate the fluorescence ratio (F340/F380) reflecting changes in [Ca^2+]i, [17]. Treatments during recordings were made using a perifusion system attached to the chamber. Changes in [Ca^2+]i were measured using an attached CCD camera that allowed recording of individual cells in the cell clusters. The influence of pertussis toxin was studied by preincubation of the cells with the toxin at 1 μg/ml for 4 h at 37° C.
In these peptides each or all of Glu 3, Glu 11 and Glu 27 of human C-peptide were replaced by Ala. In addition, all of Glu 3, Glu 11 and Glu 27 were replaced by Gln. The peptides were tested for C-peptide activity by monitoring for rises in [Ca^2+]i as described in Example 1.

[2] = tested on: p44/42 MAP kinase (Erk1 and Erk2); test: Western blot of p44/42 MAP kinase phosphorylation in Swiss 3T3 cells; format: cell-based, rat; settings: Example 6, 1 nM peptide, 3 minutes at 37° C., FIG. 3
Procedure: Swiss 3T3 cells, a […] fibroblast cell line, passage 6, were seeded 96 h before use in three 6-well plates. After 96 h, the cells in each well were confluent. The cultivation medium was Dulbecco's Modified Eagle Medium (DMEM) without sodium pyruvate, with pyridoxineHCl, 4500 mg/l glucose, 50 μg/ml gentamicin, and 10% foetal calf serum (FCS).
The cells were washed thoroughly with 37° C. starvation medium (cultivation medium as above without addition of FCS) and then kept in 1 ml 37° C. starvation medium for 2.5 h. 15 min. prior to the experiment, the buffer was changed to 37° C. Hanks' buffer (Gibco), and then kept in 37° C. […]
Protein content was determined in the collected supernatants using a BCA Protein Assay Reagent Kit (Pierce), including albumin standards. […]
The PVDF membranes were incubated with primary antibodies against (I) Phosphop44/42 MAP Kinase (Thr202/Tyr204) and (II) p44/42 MAP Kinase, respectively. […] The membranes were rinsed with TBS/T, and HRP activity on the membranes was detected with the SuperSignal® West Pico Chemiluminescent Substrate kit (Pierce).
Photographic films were exposed to the membranes, and bands of appropriate sizes on the resulting films were quantitated by densitometry, using a GS-710 Imaging Densitometer (Bio-Rad) and Quantity One software (Bio-Rad). […]

Row | Substance | changes in [Ca2+]i (F340/F380 ratio) [1] | [Ca2+]i response after preincubation of the cells with pertussis toxin [1] | capacity of phosphorylating p44/42 MAP kinase [2] | changes in [Ca2+]i (F340/F380 ratio) ([1]; human renal tubular cells loaded with fura-2/AM, peptide 5 and 10 nM)
1 | EGSLQ [C-terminal pentapeptide] | Results similar to those with human C-peptide | eliminated |  | 
2 | EAEPLQPPQPELGGGPGAGSLQPLALEGSLQ [Proline-rich C-peptide] |  |  | decrease in phosphorylating capacity | 
3 | EAEALQAAQAELGGGPGAGSLQPLALEGSLQ (EAEALQAAQAELGGGPGAGSLQPLALEGSLQ) [Alanine-rich C-peptide] |  |  | did not decrease the biological activity | 
4 | EAEDLQVGQVELGGGPGAGSLQPLALEGSLQ [human C-peptide] |  | eliminated |  | effect of 5 nM human C-peptide may be seen
